Results from PMC3530532, “Corticosteroid-Binding Globulin: Structure-Function Implications from Species Differences” (PLoS ONE, 2012).
Read-outs that look alike come from different tables or passages of the source.

How the values were obtained:
CBG = settings: cited from earlier work
cleaved human CBG = target: cleaved human CBG; design: method as in PMID 21325280; settings: 37°C, cited from earlier work
Cleaved human CBG-WT [1] = assay: Isothermal titration calorimetry, steroid titrated to neutrophil elastase-cleaved human CBG-WT; type: binding; settings: human CBG, uncleaved vs neutrophil elastase-cleaved, ITC 25°C
Procedure: (§1) Cleavage of the RCL in human and rat CBG mutants was accomplished with 100 mU human neutrophil elastase (Sigma-Aldrich) per mg purified CBG at 30°C and monitored by SDS-PAGE. The cleavage reaction was stopped with AEBSF. The protein samples were dialyzed against ITC buffer (20 mM potassium phosphate, 50 mM NaCl, pH 7.4) and titrated with steroids in a VP-ITC microcalorimeter (Microcal, Piscataway). All solutions were filtered (0.2 µm filter pore size) and degassed for 30 min prior to the titration experiments. The sample cell was filled with protein solution containing 15 µM rat CBG or 20 µM human CBG and titrated with steroid solutions containing 150 µM and 200 µM ligand, respectively. The titrations consisted of an initial injection of 2 µL followed by 25 consecutive injections of 10 µL ligand solution at 25°C. A spacing of 240 sec between the injections was used to allow a return to the baseline. Data points from the initial injection, which are generally affected by diffusion during the initial equilibration period after experiment setup, were discarded prior to data analysis. […] The binding curve was generated by plotting the heats of injections against the ratio of ligand to protein in the cell. Integrated heat data were analyzed using nonlinear regression fit with a one-site-binding model in the Origin-7™ software provided with the VP-ITC. Changes in the free energy and entropy can be calculated using the equation: ΔG° = −RTlnK = ΔH°−TΔS°. In this equation ΔG° is the change in Gibbs free energy, R the universal gas constant, T the temperature, and K the association constant. The change in enthalpy is denoted as ΔH°, and ΔS° is the change in entropy under standard conditions. The data shown in Table 2 were obtained from single titrations of each complex.

Cleaved human CBG-WT [2] = target: T1, Cleaved human CBG-WT (Homo sapiens, UniProt P08185, K148A); assay: as above; type: binding; settings: ITC, 25°C
T1 construct: residues 11 to 383 of human CBG (Swiss-Prot entry P08185); GST (N, cleaved yes); made in house; host or cells: E. coli BL21 Star (DE3)
T1 sequence (P08185 33-366 K148A): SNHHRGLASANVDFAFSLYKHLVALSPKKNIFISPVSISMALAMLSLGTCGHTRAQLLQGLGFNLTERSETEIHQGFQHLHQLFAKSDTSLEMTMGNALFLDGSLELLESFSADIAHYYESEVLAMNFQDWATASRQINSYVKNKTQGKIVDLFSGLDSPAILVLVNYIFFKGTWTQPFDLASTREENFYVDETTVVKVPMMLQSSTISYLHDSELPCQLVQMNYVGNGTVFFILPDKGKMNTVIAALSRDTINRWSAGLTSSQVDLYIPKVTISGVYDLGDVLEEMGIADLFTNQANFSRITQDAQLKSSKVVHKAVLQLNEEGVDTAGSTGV
T1 sequence (P08185 367-405): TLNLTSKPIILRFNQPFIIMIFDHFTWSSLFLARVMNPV
Procedure: as §1

uncleaved human CBG = target: uncleaved human CBG; design: method as in PMID 21325280; settings: cited from earlier work

C[C@]12CCC(=O)C=C1CC[C@@H]1[C@@H]2[C@@H](O)C[C@@]2(C)[C@H]1CC[C@]2(O)C(=O)CO [Hydrocortisone]
fraction circulating free in plasma (CBG): 4–5% | fraction of cortisol in plasma bound by CBG (CBG): 80–90% | Kd (cleaved human CBG; cleaved human CBG-WT, read-out: K d 37°C): 1370 ± 124 nM | difference of affinities of uncleaved and cleaved human CBG (cleaved human CBG; fluorescence titration): about 4.7 fold | reduction in binding affinity upon RCL cleavage (Cleaved human CBG-WT [1]): ten-fold | TΔS° (Cleaved human CBG-WT [2]; cleaved human CBG-WT): -18.7 kcal/mol | ΔG° (Cleaved human CBG-WT [2]; cleaved human CBG-WT): -8.68 kcal/mol | ΔH° (Cleaved human CBG-WT [2]; cleaved human CBG-WT): -27.41 kcal/mol | Kd (Cleaved human CBG-WT [2]; single titration, elastase-cleaved human CBG-WT): 442 ± 10 nM | Kd (uncleaved human CBG; 22°C, uncleaved human CBG, fluorescence titration, read-out: binding affinity): 26.9 nM | Kd (uncleaved human CBG; 37°C, uncleaved human CBG-WT, read-out: K d 37°C): 292 ± 19 nM
